Results published in the kinase profiling compilation of Christmann-Franck et al. (2016).

How the values were obtained:
Assay in all cases: KINOMEscan competition binding
Settings in all cases: compound 10.0 µM
CDK2 (human) = CDK2 (human) (UniProt P24941)
CDKL3 (human) = CDKL3 (human) (UniProt Q8IVW4)
CDKL5 (human) = CDKL5 (human) (UniProt O76039)
EGFR (human) = EGFR (human) (UniProt P00533)
[1] = tested on: EGFR (human), P00533 [L861Q]
[2] = tested on: EGFR (human), P00533 [P753S; 747-752 del]
ERBB3 (human) = ERBB3 (human) (UniProt P21860)
GRK1 (human) = GRK1 (human) (UniProt Q15835)
GRK4 (human) = GRK4 (human) (UniProt P32298)
GRK7 (human) = GRK7 (human) (UniProt Q8WTQ7)
HIPK2 (human) = HIPK2 (human) (UniProt Q9H2X6)
HIPK3 (human) = HIPK3 (human) (UniProt Q9H422)
HUNK (human) = HUNK (human) (UniProt P57058)
IRAK1 (human) = IRAK1 (human) (UniProt P51617)
MAK (human) = MAK (human) (UniProt P20794)
MAP3K13 (human) = MAP3K13 (human) (UniProt O43283)
MAP3K15 (human) = MAP3K15 (human) (UniProt Q6ZN16)
MAST1 (human) = MAST1 (human) (UniProt Q9Y2H9)
PIK3C2G (human) = PIK3C2G (human) (UniProt O75747)
PIK3CA (human) = PIK3CA (human) (UniProt P42336)
[3] = tested on: PIK3CA (human), P42336 [E545K]
[4] = tested on: PIK3CA (human), P42336 [H1047Y]
PLK2 (human) = PLK2 (human) (UniProt Q9NYY3)
STK39 (human) = STK39 (human) (UniProt Q9UEW8)
TIE1 (human) = TIE1 (human) (UniProt P35590)
YSK4 (human) = YSK4 (human) (UniProt Q56UN5)
CASK (human) = CASK (human) (UniProt O14936)
CPK1 (P.falciparum) = tested on: CPK1 (P.falciparum)
CRK2 (P.falciparum) = CRK2 (P.falciparum) (UniProt P61075)
DSTYK (human) = DSTYK (human) (UniProt Q6XUX3)
EIF2AK1 (human) = EIF2AK1 (human) (UniProt Q9BQI3)
IRAK4 (human) = IRAK4 (human) (UniProt Q9NWZ3)
MAP2K5 (human) = MAP2K5 (human) (UniProt Q13163)
NEK11 (human) = NEK11 (human) (UniProt Q8NG66)
PIP5K1C (human) = PIP5K1C (human) (UniProt O60331)
SGK3 (human) = SGK3 (human) (UniProt Q96BR1)
TAOK2 (human) = TAOK2 (human) (UniProt Q9UL54)
VRK2 (human) = VRK2 (human) (UniProt Q86Y07)

MAK (human), sequence (P20794 whole entry, looked up): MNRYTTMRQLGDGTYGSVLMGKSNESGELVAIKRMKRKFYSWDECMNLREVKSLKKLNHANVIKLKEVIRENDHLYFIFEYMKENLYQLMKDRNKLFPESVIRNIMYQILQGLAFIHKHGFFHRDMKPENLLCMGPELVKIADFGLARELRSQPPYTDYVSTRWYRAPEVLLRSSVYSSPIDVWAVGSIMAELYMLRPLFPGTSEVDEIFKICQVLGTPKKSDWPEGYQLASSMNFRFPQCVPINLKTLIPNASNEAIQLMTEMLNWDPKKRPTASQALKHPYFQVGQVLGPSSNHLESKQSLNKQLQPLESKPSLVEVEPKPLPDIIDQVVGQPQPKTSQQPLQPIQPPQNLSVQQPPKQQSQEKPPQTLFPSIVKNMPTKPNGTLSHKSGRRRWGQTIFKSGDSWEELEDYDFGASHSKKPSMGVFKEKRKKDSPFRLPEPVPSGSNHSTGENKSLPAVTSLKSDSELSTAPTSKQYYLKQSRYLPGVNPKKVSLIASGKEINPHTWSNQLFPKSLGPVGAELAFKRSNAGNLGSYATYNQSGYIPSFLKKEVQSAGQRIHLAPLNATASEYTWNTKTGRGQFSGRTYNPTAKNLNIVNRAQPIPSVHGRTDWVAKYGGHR
HUNK (human), sequence (P57058 whole entry, looked up): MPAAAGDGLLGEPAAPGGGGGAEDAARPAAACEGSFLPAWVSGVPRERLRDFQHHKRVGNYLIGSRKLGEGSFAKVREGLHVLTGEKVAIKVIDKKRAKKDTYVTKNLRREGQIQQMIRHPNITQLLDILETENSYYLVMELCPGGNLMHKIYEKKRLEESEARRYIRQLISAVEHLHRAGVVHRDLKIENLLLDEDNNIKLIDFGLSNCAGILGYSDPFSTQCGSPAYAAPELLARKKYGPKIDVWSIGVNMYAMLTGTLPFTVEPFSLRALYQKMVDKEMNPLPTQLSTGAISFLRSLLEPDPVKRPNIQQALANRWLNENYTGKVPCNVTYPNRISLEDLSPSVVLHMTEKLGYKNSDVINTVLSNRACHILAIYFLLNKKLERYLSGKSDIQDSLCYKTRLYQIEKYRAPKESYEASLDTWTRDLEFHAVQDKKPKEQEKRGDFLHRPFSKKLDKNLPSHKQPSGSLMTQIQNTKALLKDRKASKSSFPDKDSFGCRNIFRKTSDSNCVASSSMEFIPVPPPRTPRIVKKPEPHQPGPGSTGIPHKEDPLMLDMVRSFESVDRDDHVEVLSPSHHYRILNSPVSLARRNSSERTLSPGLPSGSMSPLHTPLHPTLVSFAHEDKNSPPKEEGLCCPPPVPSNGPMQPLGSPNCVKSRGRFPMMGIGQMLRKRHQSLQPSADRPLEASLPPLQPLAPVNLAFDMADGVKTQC
PIK3CA (human), P42336 [H1047Y], sequence (P42336 whole entry H1047Y, looked up): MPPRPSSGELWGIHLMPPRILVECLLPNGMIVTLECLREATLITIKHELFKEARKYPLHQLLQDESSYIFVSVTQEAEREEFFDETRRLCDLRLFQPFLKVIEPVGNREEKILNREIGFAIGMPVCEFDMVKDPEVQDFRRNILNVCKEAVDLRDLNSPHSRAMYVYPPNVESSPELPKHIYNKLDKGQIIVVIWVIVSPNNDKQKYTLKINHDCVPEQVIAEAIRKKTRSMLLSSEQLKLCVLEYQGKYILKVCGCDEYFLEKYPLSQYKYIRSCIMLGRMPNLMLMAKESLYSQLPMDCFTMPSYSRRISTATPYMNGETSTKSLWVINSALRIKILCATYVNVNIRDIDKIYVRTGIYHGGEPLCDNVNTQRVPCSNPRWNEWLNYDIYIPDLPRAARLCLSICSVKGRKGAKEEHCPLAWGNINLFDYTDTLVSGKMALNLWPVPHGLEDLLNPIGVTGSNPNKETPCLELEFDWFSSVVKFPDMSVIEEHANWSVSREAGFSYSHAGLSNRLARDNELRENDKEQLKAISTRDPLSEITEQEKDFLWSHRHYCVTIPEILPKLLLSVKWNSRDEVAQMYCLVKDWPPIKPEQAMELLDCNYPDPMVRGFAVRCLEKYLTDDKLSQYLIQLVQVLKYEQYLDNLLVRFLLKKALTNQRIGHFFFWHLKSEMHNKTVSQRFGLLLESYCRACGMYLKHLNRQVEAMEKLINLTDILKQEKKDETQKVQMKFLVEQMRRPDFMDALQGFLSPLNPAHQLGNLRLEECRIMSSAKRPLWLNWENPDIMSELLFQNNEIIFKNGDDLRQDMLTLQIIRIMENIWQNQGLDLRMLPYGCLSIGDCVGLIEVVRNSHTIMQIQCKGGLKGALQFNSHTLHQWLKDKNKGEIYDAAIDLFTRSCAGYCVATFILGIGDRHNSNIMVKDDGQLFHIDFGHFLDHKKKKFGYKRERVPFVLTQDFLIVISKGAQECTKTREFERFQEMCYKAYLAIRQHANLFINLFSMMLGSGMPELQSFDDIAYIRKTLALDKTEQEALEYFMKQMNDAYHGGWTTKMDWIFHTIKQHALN
ERBB3 (human), sequence (P21860 whole entry, looked up): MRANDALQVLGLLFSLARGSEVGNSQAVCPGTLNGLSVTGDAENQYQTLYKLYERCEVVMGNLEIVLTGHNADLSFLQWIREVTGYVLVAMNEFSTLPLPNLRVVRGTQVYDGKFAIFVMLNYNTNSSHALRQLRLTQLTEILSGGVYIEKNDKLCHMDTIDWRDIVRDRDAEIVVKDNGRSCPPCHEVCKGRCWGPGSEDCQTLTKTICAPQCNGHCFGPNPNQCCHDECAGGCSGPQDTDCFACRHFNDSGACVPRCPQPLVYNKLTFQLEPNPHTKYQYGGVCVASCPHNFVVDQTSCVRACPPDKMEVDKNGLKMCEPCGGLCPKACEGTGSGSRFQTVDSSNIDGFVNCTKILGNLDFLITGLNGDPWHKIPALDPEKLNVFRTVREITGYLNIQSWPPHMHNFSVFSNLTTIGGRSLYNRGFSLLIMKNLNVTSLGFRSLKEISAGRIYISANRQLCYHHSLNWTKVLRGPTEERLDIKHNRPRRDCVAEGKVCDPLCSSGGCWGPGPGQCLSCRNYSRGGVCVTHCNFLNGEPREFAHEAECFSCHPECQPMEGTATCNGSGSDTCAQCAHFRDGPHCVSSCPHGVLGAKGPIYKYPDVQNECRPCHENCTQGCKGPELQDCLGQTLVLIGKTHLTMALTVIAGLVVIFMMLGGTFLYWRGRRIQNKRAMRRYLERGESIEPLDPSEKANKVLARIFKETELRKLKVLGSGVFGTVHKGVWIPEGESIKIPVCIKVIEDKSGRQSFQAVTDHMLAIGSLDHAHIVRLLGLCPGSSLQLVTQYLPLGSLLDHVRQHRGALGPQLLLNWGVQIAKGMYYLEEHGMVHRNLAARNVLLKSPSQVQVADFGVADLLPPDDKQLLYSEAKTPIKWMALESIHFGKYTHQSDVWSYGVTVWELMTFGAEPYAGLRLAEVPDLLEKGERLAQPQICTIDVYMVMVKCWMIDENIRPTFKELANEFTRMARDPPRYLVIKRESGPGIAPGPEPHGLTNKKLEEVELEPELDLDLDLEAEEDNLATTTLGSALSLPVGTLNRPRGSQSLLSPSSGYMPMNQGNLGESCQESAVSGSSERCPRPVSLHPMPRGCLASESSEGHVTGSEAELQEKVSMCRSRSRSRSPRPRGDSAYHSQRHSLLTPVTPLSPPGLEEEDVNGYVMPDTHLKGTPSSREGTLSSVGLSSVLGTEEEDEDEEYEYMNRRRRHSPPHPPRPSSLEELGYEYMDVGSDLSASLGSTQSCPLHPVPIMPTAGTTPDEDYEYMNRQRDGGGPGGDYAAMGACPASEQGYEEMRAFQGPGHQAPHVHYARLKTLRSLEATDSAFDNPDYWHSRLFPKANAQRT
MAP3K13 (human), sequence (O43283 whole entry, looked up): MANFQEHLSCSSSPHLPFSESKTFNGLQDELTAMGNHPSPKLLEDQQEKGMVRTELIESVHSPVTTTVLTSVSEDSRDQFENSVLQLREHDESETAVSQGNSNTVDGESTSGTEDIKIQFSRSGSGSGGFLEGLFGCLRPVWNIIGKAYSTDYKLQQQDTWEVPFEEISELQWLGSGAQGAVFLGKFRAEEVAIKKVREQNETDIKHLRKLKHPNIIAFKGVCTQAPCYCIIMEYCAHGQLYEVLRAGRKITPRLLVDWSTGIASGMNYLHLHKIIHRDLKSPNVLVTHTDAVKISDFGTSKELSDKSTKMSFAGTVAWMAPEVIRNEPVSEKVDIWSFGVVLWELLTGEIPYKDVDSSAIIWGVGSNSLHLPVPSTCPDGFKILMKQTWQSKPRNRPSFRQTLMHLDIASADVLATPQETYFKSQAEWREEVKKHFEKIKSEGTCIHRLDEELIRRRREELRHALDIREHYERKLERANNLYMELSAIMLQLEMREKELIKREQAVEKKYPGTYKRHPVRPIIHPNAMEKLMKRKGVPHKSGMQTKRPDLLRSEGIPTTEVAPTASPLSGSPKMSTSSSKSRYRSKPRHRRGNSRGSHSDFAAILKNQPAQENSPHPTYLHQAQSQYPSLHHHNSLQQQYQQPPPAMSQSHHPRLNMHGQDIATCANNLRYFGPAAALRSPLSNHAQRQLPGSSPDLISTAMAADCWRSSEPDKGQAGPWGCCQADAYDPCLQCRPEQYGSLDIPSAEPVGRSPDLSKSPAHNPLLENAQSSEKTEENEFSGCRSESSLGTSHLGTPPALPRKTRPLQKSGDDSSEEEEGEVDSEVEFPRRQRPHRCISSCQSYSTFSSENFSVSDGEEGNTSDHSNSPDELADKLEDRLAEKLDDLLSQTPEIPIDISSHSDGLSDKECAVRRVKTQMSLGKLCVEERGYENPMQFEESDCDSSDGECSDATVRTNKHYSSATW
PIK3CA (human), P42336 [E545K], sequence (P42336 whole entry E545K, looked up): as the sequence (P42336 whole entry H1047Y, looked up) above, with E545K, Y1047H counted along it
PIK3CA (human), sequence (P42336 whole entry, looked up): as the sequence (P42336 whole entry H1047Y, looked up) above, with Y1047H counted along it
CRK2 (P.falciparum), sequence (P61075 whole entry, looked up): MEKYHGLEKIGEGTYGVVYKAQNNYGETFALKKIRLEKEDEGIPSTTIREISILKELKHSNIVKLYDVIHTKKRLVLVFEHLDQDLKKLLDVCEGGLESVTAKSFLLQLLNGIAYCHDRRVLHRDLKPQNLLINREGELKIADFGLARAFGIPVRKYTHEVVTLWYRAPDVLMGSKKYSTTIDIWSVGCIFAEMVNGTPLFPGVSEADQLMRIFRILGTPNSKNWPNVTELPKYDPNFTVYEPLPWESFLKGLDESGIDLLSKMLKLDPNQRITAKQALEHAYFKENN

| Structure (SMILES) | kinase still bound, per cent of control (CDK2 (human)) [%] | kinase still bound, per cent of control (CDKL3 (human)) [%] | kinase still bound, per cent of control (CDKL5 (human)) [%] | kinase still bound, per cent of control (EGFR (human)) [%] | kinase still bound, per cent of control [1] [%] | kinase still bound, per cent of control [2] [%] | kinase still bound, per cent of control (ERBB3 (human)) [%] | kinase still bound, per cent of control (GRK1 (human)) [%] | kinase still bound, per cent of control (GRK4 (human)) [%] | kinase still bound, per cent of control (GRK7 (human)) [%] | kinase still bound, per cent of control (HIPK2 (human)) [%] | kinase still bound, per cent of control (HIPK3 (human)) [%] | kinase still bound, per cent of control (HUNK (human)) [%] | kinase still bound, per cent of control (IRAK1 (human)) [%] | kinase still bound, per cent of control (MAK (human)) [%] | kinase still bound, per cent of control (MAP3K13 (human)) [%] | kinase still bound, per cent of control (MAP3K15 (human)) [%] | kinase still bound, per cent of control (PIK3CA (human)) [%] | kinase still bound, per cent of control [3] [%] | kinase still bound, per cent of control (TIE1 (human)) [%] | further results |
| --- | --- | --- | --- | --- | --- | --- | --- | --- | --- | --- | --- | --- | --- | --- | --- | --- | --- | --- | --- | --- | --- |
| COc1cc(C(=O)NC2CCN(C)CC2)ccc1Nc1ncc2c(n1)N(C1CCCC1)CCC(=O)N2C(C)C | 100 | 100 | 100 | 100 | 100 | 100 | 100 | 100 | 100 | 100 | 100 | 100 | 100 | 100 | 100 | 100 | 100 | 100 | 100 | 100 | kinase still bound, per cent of control (MAST1 (human)): 100%; kinase still bound, per cent of control (PIK3C2G (human)): 100%; kinase still bound, per cent of control [4]: 100%; kinase still bound, per cent of control (PLK2 (human)): 100%; kinase still bound, per cent of control (STK39 (human)): 100%; kinase still bound, per cent of control (YSK4 (human)): 100% |
| CC[C@@H]1C(=O)N(C)c2cnc(Nc3ccc(C(=O)NC4CCN(C)CC4)cc3OC)nc2N1C1CCCC1 | 100 |  |  |  |  |  |  |  |  |  |  |  |  |  |  |  |  | 100 | 100 | 100 |  |
| COc1cc(C(=O)NC2CCN(C)CC2)ccc1Nc1ncc2c(n1)N(C1CCCC1)C(C)CC(=O)N2C (configuration not stated) | 100 |  |  | 100 | 100 | 100 |  |  |  |  |  |  |  |  |  |  |  | 100 | 100 | 100 |  |
| CCC(=O)N1CCN(c2ccc(-n3c(=O)ccc4cnc5ccc(-c6cnc7ccccc7c6)cc5c43)cc2C(F)(F)F)CC1 | 6.2 | 92 | 100 | 85 |  |  | 44 | 99 | 90 | 100 | 58 | 86 | 91 | 100 | 68 | 100 | 100 |  | 0.6 | 100 | kinase still bound, per cent of control (CASK (human)): 100%; kinase still bound, per cent of control (CPK1 (P.falciparum)): 36%; kinase still bound, per cent of control (CRK2 (P.falciparum)): 97%; kinase still bound, per cent of control (DSTYK (human)): 28%; kinase still bound, per cent of control (EIF2AK1 (human)): 57%; kinase still bound, per cent of control (IRAK4 (human)): 90%; kinase still bound, per cent of control (MAP2K5 (human)): 100%; kinase still bound, per cent of control (MAST1 (human)): 93%; kinase still bound, per cent of control (NEK11 (human)): 65%; kinase still bound, per cent of control (PIK3C2G (human)): 11%; kinase still bound, per cent of control (PIP5K1C (human)): 80%; kinase still bound, per cent of control (PLK2 (human)): 85%; kinase still bound, per cent of control (SGK3 (human)): 100%; kinase still bound, per cent of control (STK39 (human)): 100%; kinase still bound, per cent of control (TAOK2 (human)): 84%; kinase still bound, per cent of control (VRK2 (human)): 100%; kinase still bound, per cent of control (YSK4 (human)): 38% |
| OCCCNc1cc(-c2ccnc(Nc3cccc(Cl)c3)n2)ccn1 | 100 | 5.4 | 9.4 | 100 | 100 | 100 | 100 | 100 | 100 | 100 | 15 | 100 | 100 | 100 | 4.6 | 100 | 100 | 100 | 100 | 100 | kinase still bound, per cent of control (MAST1 (human)): 100%; kinase still bound, per cent of control (PIK3C2G (human)): 100%; kinase still bound, per cent of control [4]: 100%; kinase still bound, per cent of control (PLK2 (human)): 100%; kinase still bound, per cent of control (STK39 (human)): 100%; kinase still bound, per cent of control (YSK4 (human)): 100% |
| Cc1ccc(C(=O)Nc2cccc(C(F)(F)F)c2)cc1Nc1cncc(C(N)=O)c1 | 100 |  |  | 100 | 100 | 100 |  |  |  |  |  |  |  |  |  |  |  | 100 | 100 | 100 |  |
| Cn1c(=O)n(-c2ccc(C(C)(C)C#N)cc2)c2c3cc(-c4cnc5ccccc5c4)ccc3ncc21 | 100 | 100 | 100 | 100 | 100 | 100 | 100 | 100 | 100 | 100 | 100 | 100 | 100 | 100 | 100 | 100 | 100 | 2.8 | 3 | 100 | kinase still bound, per cent of control (MAST1 (human)): 100%; kinase still bound, per cent of control (PIK3C2G (human)): 4.4%; kinase still bound, per cent of control [4]: 6.2%; kinase still bound, per cent of control (PLK2 (human)): 100%; kinase still bound, per cent of control (STK39 (human)): 100%; kinase still bound, per cent of control (YSK4 (human)): 29% |
| C=CC(=O)Nc1cccc(Oc2nc(Nc3ccc(N4CCN(C)CC4)cc3OC)ncc2Cl)c1 | 100 |  |  | 0.1 | 0.05 | 0.4 |  |  |  |  |  |  |  |  |  |  |  | 100 | 100 | 100 |  |
